# PMC9088062 (2018)
# Columns and labels:
# [1] = test system: Tcy2 (DNA, G4) GGTTGGTTGGTTGGTTTT; test: FAM fluorescence quenching; settings: 10 mM Tris-acetate pH 8.0, room temperature, 25 nM DNA
# [2] = test system: Tcy2 (DNA, G4) GGTTGGTTGGTTGGTTTT; test: circular dichroism; settings: 10 mM MOPS pH 7.0, room temperature, 5 min; 1 μM DNA, 1 ppm cyromazine
# [3] = test system: Random DNA (DNA, single strand) ATCGACATGTAGCCGATGGC; test: FAM fluorescence quenching; settings: 10 mM Tris-acetate pH 8.0, room temperature; 25 nM DNA; highest tested 100 ppb
# [4] = tested at 50 ppb, no fluorescence change
SMILES,"binding [1, 4]",other results
Cc1ccc(N=CN(C)C=Nc2ccc(C)cc2C)c(C)c1,no,
Cc1nc(C)c(Cl)c(O)c1Cl,no,
Nc1nc(N)nc(NC2CC2)n1,,"binding ([1]; 2 min, static quenching): yes; binding [2]: yes; binding [3]: no"
O=C(N[C@H](CO)[C@H](O)c1ccc([N+](=O)[O-])cc1)C(Cl)Cl,no,
CN(C)[C@@H]1C(=O)C(C(N)=O)=C(O)[C@@]2(O)C(=O)C3=C(O)c4c(O)cccc4[C@@](C)(O)[C@H]3[C@H](O)[C@@H]12,no,

# Continued, in another order:
"binding [1, 4]",SMILES,other results
no,CS(=O)(=O)c1ccc([C@@H](O)[C@@H](CO)NC(=O)C(Cl)Cl)cc1,
no,c1ccc([C@H]2CN3CCSC3=N2)cc1,
